Laboratory results from patent US12383537B2, “(3S)-and (3R)-6,7-bis(hydroxymethyl)-1H,3H-pyrrolo[1,2-c]thiazoles as P53 activators” (UNIVERSIDADE DE COIMBRA, priority 2018, dated 2025).

Columns and labels:
[1] = system: HCT116 p53+/+; assay: sulforhodamine B (SRB) growth inhibition assay; format: cell-based, human; conditions: for IC50: HCT116 p53+/+, 48 hours incubation, SRB assay; for p53-dependence of anti-proliferative effect: comparison of IC50 in HCT116 p53+/+ and HCT116 p53−/−
Description: (§1) Cancer cells were plated at 5.0×10^3 cells/well in 96-well plates and incubated for 24 hours. Cells were then exposed to serial dilutions of MANIO, CP-31398 or PRIMA-1MET (from 0.3 to 80 μM). The effect of the compounds was analyzed following 48 hours incubation, using the sulforhodamine B (SRB) assay. The solvent DMSO corresponding to the maximum concentration used in these assays (0.025%) was included as control. Results are the mean±S.E.M. of 3-5 independent experiments.
(§2) Cancer cells were plated in 96-well plates and incubated for 24 hours. Cells were then exposed to serial dilutions of compound (from 0.3 to 80 μM). The effect of the compound was analyzed following 48 hours incubation, using the sulforhodamine B (SRB) assay. The solvent DMSO corresponding to the maximum concentration used in these assays (0.025%) was included as control. Results are the mean±S.E.M. of 3-5 independent experiments.

[2] = system: HCT116 p53−/−; assay: sulforhodamine B (SRB) growth inhibition assay; format: cell-based, human
Description: as §1, §2

[3] = system: H1299 (p53-null); assay: sulforhodamine B (SRB) growth inhibition assay; format: cell-based; conditions: Homo sapiens, NCI-H1299, H1299, 48 hours incubation
Description: as §2

[4] = system: H460 (wtp53); assay: sulforhodamine B (SRB) growth inhibition assay; format: cell-based; conditions: Homo sapiens, NCI-H460, H460, 48 hours incubation
Description: as §2

[5] = system: HT-29 (mutp53 R273H); assay: sulforhodamine B (SRB) growth inhibition assay; format: cell-based; conditions: Homo sapiens, HT-29, 48 hours incubation
Description: as §2

[6] = system: HepG2 (wtp53); assay: sulforhodamine B (SRB) growth inhibition assay; format: cell-based; conditions: Homo sapiens, HepG2, 48 hours incubation
Description: as §2

[7] = system: Huh-7 (mutp53 Y220C); assay: sulforhodamine B (SRB) growth inhibition assay; format: cell-based; conditions: Homo sapiens, Huh-7, 48 hours incubation
Description: as §2

[8] = system: MDA-MB-468 (mut p53 R273H); assay: sulforhodamine B (SRB) growth inhibition assay; format: cell-based; conditions: Homo sapiens, MDA-MB-468, 48 hours incubation
Description: as §2

[9] = system: SW837 (mutp53 R248W); assay: sulforhodamine B (SRB) growth inhibition assay; format: cell-based; conditions: Homo sapiens, SW837, 48 hours incubation
Description: as §2

[10] = system: skin cancer cell lines (A375, SCC4925, A375C5 cells); assay: anti-proliferative effect in skin cancer cell lines; format: cell-based; conditions: range over A375, SCC4925, A375C5 cells
[11] = system: MCF7 breast cancer cell lines; conditions: cited from earlier work
[12] = system: wild-type p53-expressing cancer cells (colon HCT116 p53+/+, breast MCF7, and lung H460 cells); assay: growth inhibition (SRB) in panel of wild-type p53 cancer cell lines; format: cell-based; conditions: Homo sapiens, range over HCT116 p53+/+, 48 hours, read-out: IC50 (concentration of compound that causes 50% growth inhibition)
Description: (§3) FIG. 2 illustrates the growth inhibitory effect of MANIO in a panel of human cancer cell lines (HCT116 p53+/+, MCF7, H460, MDA-MB-468, HT-29, SW837, Huh-7, HCT116 p53−/−, H1299, HCC1937). IC50 values were determined by the sulforhodamine B assay after 48 hours treatment with MANIO. Data are mean±SEM (n=4-5).
(§4) The compound (3S)-6,7-bis(hydroxymethyl)-1H,3H-pyrrolo[1,2-c]thiazole, MANIO, inhibited the growth of tumor cells expressing wild-type and mutant p53 forms, with much lower anti-proliferative effect on p53-null cancer cells: The activity of the compound (FIG. 1, with R^1═H, R^2=Ph and R^3=Me) was tested in an array of cancer cell lines with different p53 status.

[13] = system: mutant p53-expressing cancer cells (breast MDA-MB-468, rectum SW837, colon HT29, and hepatocarcinoma Huh-7 cells); assay: growth inhibition (SRB) in panel of mutant p53 cancer cell lines; format: cell-based; conditions: Homo sapiens, range over MDA-MB-468, SW837, HT29, Huh-7, 48 hours, read-out: IC50 (concentration of compound that causes 50% growth inhibition)
Description: as §3, §4

[14] = system: p53-null cancer cells (colon HCT116 p53−/−, breast H1299 and HCC1937 cells); assay: growth inhibition (SRB) in panel of p53-null cancer cell lines; format: cell-based; conditions: Homo sapiens, range over HCT116 p53−/−, 48 hours, read-out: IC50 (concentration of compound that causes 50% growth inhibition)
Description: as §3, §4

[15] = system: HCT116 p53+/+ and HCT116 p53−/− cells; assay: colony formation assay; format: cell-based, human; conditions: 14 days of treatment
Text: FIG. 4 illustrates the effect of MANIO on HCT116 p53+/+ (A) and HCT116 p53−/− (B) cell colony formation after 14 days of treatment.
MANIO had p53-dependent anti-proliferative effect in colon carcinoma cells: The activity of the compound as wild-type p53 activator was studied in colon carcinoma cells with (HCT116 p53+/+) and without (HCT116 p53−/−) p53 (FIG. 3; Table 1). The IC50 value of MANIO in HCT116 p53+/+ cells was about […] lower than that obtained in HCT116 p53−/− cells, indicating a p53-dependent anti-proliferative effect.

[16] = system: HCT116 cells; assay: cell cycle analysis by flow cytometry (propidium iodide); format: cell-based, human; conditions: 1 μM and 2.5 μM, 48 hours
Description: (§5) FIG. 5 illustrates the effect of 1 μM and 2.5 μM MANIO on cell cycle progression (A) and apoptosis (B) in HCT116 p53+/+ and HCT116 p53−/− cells. (A) Cell cycle phases were analysed by flow cytometry using propidium iodide (PI) and quantified using the FlowJo software, after 48 hours MANIO treatment. […] (B) Apoptosis was analysed by flow cytometry using FITC-Annexin V and PI, after 48 hours or 72 hours MANIO treatment.

[17] = system: HCT116 cells; assay: apoptosis by flow cytometry (FITC-Annexin V and PI); format: cell-based, human; conditions: 1 μM and 2.5 μM, 48 hours or 72 hours
Description: as §5

[18] = system: p53 in HCT116 p53+/+ cells; assay: Western blot and RT-qPCR of p53 and p53 target genes; format: cell-based, human
Description: FIG. 6 illustrates the MANIO effect on protein levels of p53 (A), the mRNA (B) and protein (C) expression levels of p53 target genes and PARP cleavage, in HCT116 p53+/+ and HCT116 p53−/− cells. (B) mRNA levels of p53 target genes in HCT116 cells (MDM2, CDKN1A, GADD45A, BAX, TNFRSF10B, PUMA, NOXA), after 48 hours treatment with MANIO, or DMSO, determined by RT-qPCR. Fold of induction is relative to DMSO. […] Immunoblots represent one of three independent experiments. GAPDH was used as a loading control.

[19] = system: mutant p53 forms ectopically expressed in p53-null H1299 cells; assay: growth inhibition (SRB) in mutant p53-transfected H1299 cells; format: cell-based, human; conditions: R282W, R248W, R280K, R273H, R273C, G245D, R175H, R248Q; 48 hours; versus empty vector
Description: FIG. 7 illustrates the growth inhibitory effect of MANIO in mutant p53-transfected H1299 cells. H1299 cells were transfected with pcDNA3 plasmid expressing different p53 mutants (R282W, R248W, R280K, R273H, R273C, G245D, R175H, R248Q, Y220C, G245S), or with the empty pcDNA3 plasmid, using ScreenFect®A. The growth inhibitory effect was evaluated by sulforhodamine B assay after 48 hours treatment with MANIO.

[20] = system: HCT116 p53+/+ cells; assay: Comet assay (genotoxicity); format: cell-based, human; conditions: MANIO 1 and 2.5 μM; etoposide 50 μM
Text: Scale bar=20 μm; Magnification=200×.
For that purpose, the Comet assay was used, which measures the ability of genotoxic agents to induce DNA strand breaks in eukaryotic cells.

[21] = system: HCT116 p53+/+ cells; assay: wound healing assay (cell migration); format: cell-based, human; conditions: 0.2 and 0.375 μM
Description: FIG. 9 illustrates the prevention of HCT116p53+/+ cell migration by MANIO. Confluent cells were treated with 0.20 and 0.375 μM MANIO or DMSO, and observed at different time-points in the wound healing assay (scale bar=50 μm and magnification=100×).
MANIO prevented cell migration of human colon cancer cells: The effect of MANIO on the migration ability of HCT116 p53+/+ cells was also studied.

[22] = system: HCT116 p53+/+ tumors; assay: in vivo xenograft mouse model; design: species or system Swiss nude mice; conditions: versus vehicle
Description: FIG. 10 illustrates the in vivo antitumor activity of MANIO. (A) Swiss nude mice were implanted subcutaneous with xenografts of 1.5×10^6 HCT116 p53+/+ cells. The treatment was initiated when palpable tumors were established (˜100 mm3) and consisted in 4 intraperitoneal injections (2 times per week) of vehicle (control) or 100 mg/kg of MANIO (n=5 for each group). […] (B) The tumor weight after MANIO or vehicle (control) treatment was measured; data are mean±SEM (*p<0.05; unpaired Student's t-test). […] This description is of course not in any way restricted to the forms of implementation presented herein and any person with an average knowledge of the area can provide many possibilities for modification thereof without departing from the general idea as defined by the claims. The preferred forms of implementation described above can obviously be combined with each other. The following claims further define the preferred forms of implementation.

[23] = Homo sapiens, HCT-116, 48 hours incubation

Cc1c(CO)c(CO)c2n1[C@@H](c1ccccc1)SC2 [(3R)-6,7-Bis (hydroxymethyl)-5-methyl-3-phenyl-1H,3H-pyrrolo[1,2-c]thiazole]
IC50 ([1]; Homo sapiens, HCT-116): 5.11 ± 0.42 µM | p53-dependence of anti-proliferative effect [1]: relevant p53-dependent anti-proliferative activity | IC50 [2, 23]: 51.8 ± 2.73 µM | IC50 [3]: 25.5 ± 2.38 µM | IC50 [4]: 1800 ± 89 nM | IC50 [5]: 5.88 ± 1.28 µM | IC50 [6]: 50.3 ± 1.63 µM | IC50 [7]: 6.43 ± 0.32 µM | IC50 [8]: 910 ± 9.5 nM | IC50 [9]: 7.35 ± 0.89 µM | IC50 [10]: 25 to 35 µM | anti-proliferative activity [11]: potent anti-proliferative activity

COc1ccc(/C=C/c2nc(NCCCN(C)C)c3ccccc3n2)cc1 [CP-31398, reference compound]
IC50 [1]: 3.4 ± 0.1 µM | p53-dependence of anti-proliferative effect [1]: lower p53-dependence than the compound | IC50 ([2]; 48 hours incubation): 7.3 ± 0.6 µM

Cc1c(CO)c(CO)c2n1[C@H](c1ccccc1)SC2 [MANIO, (3S)-6,7-Bis(hydroxymethyl)-5-methyl-3-phenyl-1H,3H-pyrrolo[1,2-c]thiazole]
IC50 in HCT116 p53+/+ cells lower than in HCT116 p53−/− cells ([1]; HCT116 p53+/+ versus HCT116 p53−/−): about 50 fold | IC50 ([1]; Homo sapiens, HCT-116): 0.96 ± 0.04 µM | IC50 [2, 23]: 48.2 ± 1.97 µM | IC50 [12]: 200 to 960 nM | IC50 [13]: 200 to 3200 nM | IC50 [14]: 28.5 to 48.2 µM | IC50 [10]: 25 to 35 µM | colony-forming ability [15]: reduce the colony-forming ability of HCT116 in a p53-dependent manner | cell cycle progression [16]: induction of a G2/M-phase cell arrest | apoptosis [17]: apoptotic cell death | mRNA and proteins encoded by p53 target genes ([18]; 1 μM): increased | p53 protein levels ([18]; 1 μM, 24, 48 and 72 hours): increased the p53 protein levels | growth inhibition of cells transfected with p53 mutants [19]: significant growth inhibition | percentage of tail DNA (DNA damage) [20]: did not significantly increase the percentage of tail DNA | wound closure [21]: significantly reduced the wound closure | mice weight during treatment ([22]; 100 mg/kg intraperitoneal, 2 times per week): no significant differences between control and MANIO-treated mice weight | growth of the HCT116 p53+/+ tumors ([22]; four intraperitoneal administrations of 100 mg/kg): significantly inhibited | anti-proliferative activity [11]: potent anti-proliferative activity

COCC1(CO)C(=O)C2CCN1CC2 (stereo not drawn) [PRIMA-1^MET, reference compound]
IC50 [1]: 19.9 ± 4 µM | p53-dependence of anti-proliferative effect [1]: lower p53-dependence than the compound | IC50 ([2]; 48 hours incubation): 13.1 ± 2 µM
